Measured values taken from US20240124465A1, “MOLECULES AND METHODS RELATED TO TREATMENT OF DISORDERS ASSOCIATED WITH JAK-2 SIGNALING DYSFUNCTION” (ST. JUDE CHILDREN'S RESEARCH HOSPITAL, priority 2020, published 2024).

How the values were obtained:
Format in all cases: cell-based
MHH-CALL-4 cells = assay: Cytotoxicity assay (resazurin, 72 hours); parameters: AUC: unit not given beside the values; settings: for EC50: MHHCALL4, resazurin; for AUC: area under the dose-response curve
Description: Cytotoxicity assay: MHH-CALL-4 cells were maintained in RPMI1640 medium (Invitrogen) supplemented with 10% FBS (Hyclone), Penicillin/Streptomycin (100 units/mL) and Glutamine (100 μM). 2×10^5 cells were seeded in 100 μl medium/well in 96 well assay plates (Corning 3603). Assays were performed in triplicate; compounds to be screened were added to assay plates from DMSO stock solutions by pin transfer using 50SS pins (V&P Scientific). The assay plates incubated at 37° C. in 5% CO2 for 72 hours. Cells were then incubated for four hours with resazurin (Sigma) solution and read on a Synergy HT plate reader (Biotek, Winooski, VT). High-throughput assay data was analyzed using our in-house Robust Interpretation of Screening Experiments (RISE) application written in Pipeline Pilot (Biovia, v. 17.2.0) and the R program (R Core Team, 2013). All the AUC (area under the dose-response curve) per compound calculated from its dose response curve by RISE protocol. Selected data were plotted and analyzed by GraphPad Prism software v7 using non-linear regression curve fitting.

GSPT1 = biological target: T1, GSPT1 (Homo sapiens, UniProt P15170); assay: Western blot assay, GSPT1 neosubstrate degradation; settings: MHH-CALL-4 cells, vehicle control = 100%; for remaining activity at 0.1 µM: MHHCALL4, 100 nM, 24 h
T1 construct: endogenous in cells; host or cells: MHH-CALL-4
Description: (§1) Western blot assay: MHH-CALL-4 Cells were washed twice with ice-cold PBS and lysed in RIPA lysis buffer (Sigma) freshly supplemented with Halt™ Protease Inhibitor Cocktail (ThermoFisher) for 15 minutes on ice. The cell pellet was removed by centrifugation at 13,000 g at 4° C. for 15 minutes. Protein concentration was measured by BCA assay (Thermo Fisher Scientific). Proteins were denatured in NuPAGE LDS 4× sample buffer supplemented with reducing agents (Invitrogen). Typically, 10-20 μg of total protein was loaded per lane on a 4%-12% NUPAGE Bis-Tris gradient gel (Invitrogen) and analyzed by standard immunoblotting and imaged using Li—COR Odyssey CLx (LI-COR Biotechnology, Lincoln, NE). To access the protein degradation, the signal of target protein was normalized by the signal of ACBT and the signal of vehicle control was set as 100%. Primary antibodies used were: JAK1 (Cell Signaling #3332S), JAK2 (#3230S), JAK3 (#8827S), TYK2 (#9312S), GSPT1 (#14980S), CRBN (#71810S), IKZF1 (Santa Cruz Biotechnology, SC-398265) and ACBT (Santa Cruz Biotechnology, SC-47778).

JAK2 = assay: Western blot assay, JAK2 protein degradation; settings: MHH-CALL-4 cells, vehicle control = 100%
Description: as §1

JAK3 = biological target: T2, JAK3 (Homo sapiens, UniProt P52333); assay: Western blot assay, JAK3 protein degradation; settings: MHHCALL4; 100 nM, 24 h; MHH-CALL-4 cells; vehicle control = 100%; read-out: Target Protein Degradation (% remaining at 100 nM, 24 h) JAK3
T2 construct: endogenous in cells; host or cells: MHH-CALL-4
T2 sequence (P52333 1-1124): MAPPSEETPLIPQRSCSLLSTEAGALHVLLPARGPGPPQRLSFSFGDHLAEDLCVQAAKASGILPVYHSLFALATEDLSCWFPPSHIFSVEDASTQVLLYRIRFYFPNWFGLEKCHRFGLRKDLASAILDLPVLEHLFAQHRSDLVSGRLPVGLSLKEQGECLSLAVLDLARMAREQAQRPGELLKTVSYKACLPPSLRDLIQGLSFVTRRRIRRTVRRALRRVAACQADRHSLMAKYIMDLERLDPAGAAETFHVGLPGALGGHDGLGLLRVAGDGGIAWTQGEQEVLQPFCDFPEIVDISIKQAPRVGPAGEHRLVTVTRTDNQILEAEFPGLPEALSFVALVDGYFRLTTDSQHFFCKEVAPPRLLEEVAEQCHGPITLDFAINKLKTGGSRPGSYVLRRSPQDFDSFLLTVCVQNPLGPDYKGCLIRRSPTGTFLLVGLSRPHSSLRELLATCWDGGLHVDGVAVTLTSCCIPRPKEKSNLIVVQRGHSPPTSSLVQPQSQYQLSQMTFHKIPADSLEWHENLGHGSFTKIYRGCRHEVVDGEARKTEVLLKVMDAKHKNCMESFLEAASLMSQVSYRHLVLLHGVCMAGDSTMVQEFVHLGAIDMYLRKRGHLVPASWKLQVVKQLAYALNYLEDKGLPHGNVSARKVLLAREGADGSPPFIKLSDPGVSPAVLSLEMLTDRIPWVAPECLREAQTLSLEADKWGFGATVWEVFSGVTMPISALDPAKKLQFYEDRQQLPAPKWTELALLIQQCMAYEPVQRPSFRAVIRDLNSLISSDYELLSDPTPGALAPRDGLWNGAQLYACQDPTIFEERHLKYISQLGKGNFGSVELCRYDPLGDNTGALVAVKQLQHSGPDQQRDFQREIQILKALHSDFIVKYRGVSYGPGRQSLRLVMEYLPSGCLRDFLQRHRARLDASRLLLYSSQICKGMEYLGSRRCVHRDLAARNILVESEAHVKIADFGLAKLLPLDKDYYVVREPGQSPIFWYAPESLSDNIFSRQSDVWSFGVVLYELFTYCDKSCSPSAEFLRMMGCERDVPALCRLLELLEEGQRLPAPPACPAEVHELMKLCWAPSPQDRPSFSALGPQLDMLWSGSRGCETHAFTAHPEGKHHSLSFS
Description: as §1

T1 sequence (P15170 whole entry): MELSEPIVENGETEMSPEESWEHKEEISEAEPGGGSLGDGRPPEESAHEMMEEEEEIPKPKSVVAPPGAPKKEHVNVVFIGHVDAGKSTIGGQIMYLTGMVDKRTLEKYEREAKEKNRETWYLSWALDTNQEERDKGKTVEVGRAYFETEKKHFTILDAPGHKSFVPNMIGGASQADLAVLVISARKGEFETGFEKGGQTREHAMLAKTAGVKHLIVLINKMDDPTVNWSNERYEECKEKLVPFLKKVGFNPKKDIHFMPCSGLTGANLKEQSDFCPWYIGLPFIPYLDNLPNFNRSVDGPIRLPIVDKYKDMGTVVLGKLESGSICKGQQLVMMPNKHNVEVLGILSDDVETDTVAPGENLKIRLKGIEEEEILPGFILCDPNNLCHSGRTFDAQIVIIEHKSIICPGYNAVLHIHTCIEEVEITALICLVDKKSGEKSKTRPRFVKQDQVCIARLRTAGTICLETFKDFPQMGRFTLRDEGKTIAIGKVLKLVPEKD

Neosubstrate Degradation (% remaining at 100 nM, 24 h) GSPT1 (GSPT1) | remaining activity at 0.1 µM (GSPT1) | remaining activity at 0.1 µM (JAK3) | Compound | EC50 (MHH-CALL-4 cells) | AUC (MHH-CALL-4 cells) | Target Protein Degradation (% remaining at 100 nM, 24 h) JAK2 (JAK2)
None |  |  | CCS(=O)(=O)N1CC(CC#N)(n2cc(-c3nc(Nc4ccc(C(=O)N5CCN(c6ccc(C7CCC(=O)NC7=O)cc6)CC5)cc4)nc4[nH]ccc34)cn2)C1 (stereo not drawn) [Compound 2] | 1 nM | 167 | None
 | 78% |  | CCS(=O)(=O)N1CC(CC#N)(n2cc(-c3nc(Nc4ccc(C(=O)NCCCCNC(=O)COc5ccc(C6CCC(=O)NC6=O)cc5)cc4)nc4[nH]ccc34)cn2)C1 (stereo not drawn) [Compound 15] | > 5500 nM | 156 | 29 % remaining
 | 102% |  | CCS(=O)(=O)N1CC(CC#N)(n2cc(-c3nc(Nc4ccc(C(=O)N5CC6(C5)CN(c5ccc(C7CCC(=O)NC7=O)cc5)C6)cc4)nc4[nH]ccc34)cn2)C1 (stereo not drawn) [Compound 53, 2-(3-(4-(2-((4-(6-(4-(2,6-dioxopiperidin-3-yl)phenyl)-2,6-diazaspiro[3.3]heptane-2-carbonyl)phenyl)amino)-7H-pyrrolo[2,3-d]pyrimidin-4-yl)-1H-pyrazol-1-yl)-1-(ethylsulfonyl)azetidin-3-yl)acetonitrile] | 1.7 nM | 142 | 36 % remaining
 | 125% |  | CCS(=O)(=O)N1CC(CC#N)(n2cc(-c3nc(Nc4ccc(C(=O)NCCCN5CC6CCC5CN6c5ccc(C6CCC(=O)NC6=O)cc5)cc4)nc4[nH]ccc34)cn2)C1 (stereo not drawn) [Compound 54, 4-((4-(1-(3-(cyanomethyl)-1-(ethylsulfonyl)azetidin-3-yl)-1H-pyrazol-4-yl)-7H-pyrrolo[2,3-d]pyrimidin-2-yl)amino)-N-(3-(5-(4-(2,6-dioxopiperidin-3-yl)phenyl)-2,5-diazabicyclo[2.2.2]octan-2-yl)propyl)benzamide] | 6.3 nM | 67 | 62 % remaining
 | 102% |  | CCS(=O)(=O)N1CC(CC#N)(n2cc(-c3nc(Nc4ccc(C(=O)NCCCN5CCC6(CCN(c7ccc(C8CCC(=O)NC8=O)cc7)CC6)C5)cc4)nc4[nH]ccc34)cn2)C1 (stereo not drawn) [Compound 56, 4-((4-(1-(3-(cyanomethyl)-1-(ethylsulfonyl)azetidin-3-yl)-1H-pyrazol-4-yl)-7H-pyrrolo[2,3-d]pyrimidin-2-yl)amino)-N-(3-(8-(4-(2,6-dioxopiperidin-3-yl)phenyl)-2,8-diazaspiro[4.5]decan-2-yl)propyl)benzamide] | 2650 nM | 172 | 58 % remaining

The remaining lines, values behind:

Compound | Neosubstrate Degradation (% remaining at 100 nM, 24 h) GSPT1 (GSPT1) | remaining activity at 0.1 µM (GSPT1) | remaining activity at 0.1 µM (JAK3) | EC50 (MHH-CALL-4 cells) | AUC (MHH-CALL-4 cells) | Target Protein Degradation (% remaining at 100 nM, 24 h) JAK2 (JAK2)
CCS(=O)(=O)N1CC(CC#N)(n2cc(-c3nc(Nc4ccc(C(=O)NCCOCCOc5cccc(C6CCC(=O)NC6=O)c5)cc4)nc4[nH]ccc34)cn2)C1 (stereo not drawn) [Compound 9] |  |  |  | 873 nM | 132 | 
CCS(=O)(=O)N1CC(CC#N)(n2cc(-c3nc(Nc4ccc(C(=O)NCCOCCOCCOc5ccc(C6CCC(=O)NC6=O)cc5)cc4)nc4[nH]ccc34)cn2)C1 (stereo not drawn) [Compound 12] |  |  |  | > 5000 nM | 116 | 
CCS(=O)(=O)N1CC(CC#N)(n2cc(-c3nc(Nc4ccc(C(=O)NCCCCNc5ccc(C6CCC(=O)NC6=O)cc5)cc4)nc4[nH]ccc34)cn2)C1 (stereo not drawn) [Compound 13] |  |  |  | > 5000 nM | 93 | 
CCS(=O)(=O)N1CC(CC#N)(n2cc(-c3nc(Nc4ccc(C(=O)NCCCCCNC(=O)COc5ccc(C6CCC(=O)NC6=O)cc5)cc4)nc4[nH]ccc34)cn2)C1 (stereo not drawn) [Compound 16] |  |  |  | > 5700 nM | 136 | 
CCS(=O)(=O)C1CC(CC#N)(n2cc(-c3nc(Nc4ccc(C(=O)N5CCN(c6ccc7c(c6)C(=O)N(C6CCC(=O)NC6=O)C7=O)CC5)cc4)nc4[nH]ccc34)cn2)C1 (stereo not drawn) [Compound 21] |  |  |  | 13.9 nM | 118 | 53 % remaining
CCCn1cc(-c2nc(Nc3ccc(C(=O)NCCN4CCN(c5cccc6c5C(=O)N(C5CCC(=O)NC5=O)C6=O)CC4)cc3)nc3[nH]ccc23)cn1 (stereo not drawn) [Compound 24] |  | 0% |  | 83.6 nM | 208 | 93 % remaining
CCCn1cc(-c2nc(Nc3ccc(C(=O)NCCCN4CCN(c5cccc6c5C(=O)C(C5CCC(=O)NC5=O)C6=O)CC4)cc3)nc3[nH]ccc23)cn1 (stereo not drawn) [Compound 25] | Medium |  |  | 169 nM | 250 | None
CCCn1cc(-c2nc(Nc3ccc(C(=O)N4CCN(c5cccc6c5C(=O)N(C5CCC(=O)NC5=O)C6=O)CC4)cc3)nc3[nH]ccc23)cn1 (stereo not drawn) [Compound 26] | Medium |  |  | 297 nM | 217 | None
CCS(=O)(=O)N1CC(CC#N)(n2cc(-c3nc(Nc4ccc(C(=O)NCCN5CCC(c6ccc7c(c6)CN(C6CCC(=O)NC6=O)C7=O)CC5)cc4)nc4[nH]ccc34)cn2)C1 (stereo not drawn) [Compound 35, 4-((4-(1-(3-(cyanomethyl)-1-(ethylsulfonyl)azetidin-3-yl)-1H-pyrazol-4-yl)-7H-pyrrolo[2,3-d]pyrimidin-2-yl)amino)-N-(2-(4-(2-(2,6-dioxopiperidin-3-yl)-1-oxoisoindolin-5-yl)piperidin-1-yl)ethyl)benzamide] |  | 116% | 51% | 22 nM | 223 | 33 % remaining
CCS(=O)(=O)N1CC(CC#N)(n2cc(-c3nc(Nc4ccc(C(=O)NCCCN5CC6CC5CN6c5ccc(C6CCC(=O)NC6=O)cc5)cc4)nc4[nH]ccc34)cn2)C1 (stereo not drawn) [Compound 48, 4-((4-(1-(3-(cyanomethyl)-1-(ethylsulfonyl)azetidin-3-yl)-1H-pyrazol-4-yl)-7H-pyrrolo[2,3-d]pyrimidin-2-yl)amino)-N-(3-(5-(4-(2,6-dioxopiperidin-3-yl)phenyl)-2,5-diazabicyclo[2.2.1]heptan-2-yl)propyl)benzamide] |  |  |  | 27.3 nM | 80 | 76 % remaining
CCS(=O)(=O)N1CC(CC#N)(n2cc(-c3nc(Nc4ccc(C(=O)NCCCN5CCC6(CC5)CCN(c5ccc(C7CCC(=O)NC7=O)cc5)CC6)cc4)nc4[nH]ccc34)cn2)C1 (stereo not drawn) [Compound 51] |  |  |  | 226 nM | 105 | 67 % remaining
